How the values were obtained:
eck receptor (p130^eck) = assay: p130eck autophosphorylation in LIM 2405 cells; assay type: cell-based, human; conditions: for eck receptor phosphorylation: intact LIM 2405 cells, 10-15 min at 37° C.
Description: The LIM 2405 colorectal carcinoma cell line (Whitehead et al. Immunol. and Cell Biol. 70, 227 (1992)) was maintained in RPMI 1640 containing 5% FBS, 1 μg/ml insulin, 10 μg/ml hydrocortisone and 10 μM α-thioglycerol, and subpassaged by trypsination and dilution (1:5) into fresh media. Prior to assay 2.5×10^5 LIM 2405 cells were seeded into 6-well dishes (Falcon #3046) and incubated for 24 hr at 37° C. The media was discarded and replaced with serum-free RPMI 1640 containing 0.03% BSA, 1 μg/ml insulin, 10 μg/ml hydrocortisone and 10 μM α-thioglycerol, then incubated for 12-18 hr. In some experiments the cell cultures were labelled with ^32 P-orthophosphate (2 mCi/ml) in phosphate-free RPMI 1640 (Flow) for 2-3 hr prior to treatment. Growth factor stock solutions were prediluted at varying concentrations into 2.0 ml of serum-free media, then warmed to 37° C. Cell cultures were removed from the incubator, and the supernatant media discarded. Treatments were promptly added and the cell cultures incubated at 37° C. for 10-15 min. The cultures were then removed from the incubator, placed on ice, and the culture supernatant aspirated.
The treated cell cultures were chilled to 0° C. then washed once with ice-cold PBS (GIBCO). The residual PBS was aspirated and the cells were lysed by the addition of 1.0 ml of ice-cold RIPA buffer (10 mM sodium phosphate, pH 7.4, 150 mM sodium chloride, 0.1% sodium dodecyl sulfate, 1% NP-40, 1% deoxycholate, 1% Trasylol, 2 mM EDTA, 50 mM sodium fluoride and 100 mM sodium orthovanadate). After a 10 min incubation the lysates were transferred to 1.5 ml tubes and clarified by centrifugation for 30 min at 10,000×g. The clarified lysate supernatants were transferred to new tubes and immunoprecipitated with 1.0 μg/ml of affinity purified rabbit anti-Eck C-terminal domain antibody for 2 hr at 0° C. Immune complexes were adsorbed to Protein-G Sepharose beads (Pharmacia) at 4° C. for 30 min, washed twice with ice-cold RIPA buffer, once with 0.1M Tris-HCl, pH 8.0, containing 0.5M LiCl, and once with RIPA. The resulting immunoprecipitates were solubilized with SDS-PAGE sample buffer and stored for further analysis.
The anti-eck immunoprecipitates from treated and untreated LIM 2405 cell lysates were resolved on 7.5% polyacrylamide gels as previously described (Boyle et al. Meth. Enzymol. 201, 110 (1991)). […] Immune complexes were detected by chemiluminescent exposure (ECL, Amersham) to Kodak X-OMAT X-ray film at room temperature for 0.5-5 min.
Eck receptor immunoprecipitates from ^32 P-labelled LIM 2405 cells were resolved by SDS-PAGE, and the gel dried directly without fixation. After exposure to X-ray film the labelled eck receptor band was isolated and phosphoamino acid content determined as described (Boyle et al. Meth. Enzymol. 201, 110 (1991))

[1] = test system: immobilized soluble extracellular domain of eck; assay: Stability of eck binding activity of formulated EBP (BIAcore); assay type: physicochemical, human; conditions: diluted into PBS to 100 μg/ml, 2 hours at 3° C., no detergent
Description: FIG. 7. Binding of CHO-derived EBP in various detergent formulations to immobilized eck receptor as measured by BIAcore. Purified EBP was diluted to 100 μg/ml in PBS in the presence or absence of detergent and incubated for 2 hrs. at 3° C. Protein samples were diluted to the concentrations indicated in the figure and tested for eck receptor binding.
Measuring the ability of EBP to bind to the immobilized soluble extracellular domain of eck using BIAcore, it was determined that dilute solutions of purified EBP rapidly lost the ability to bind to the eck receptor unless formulated with a protective agent such as a detergent. Recombinant CHO EBP diluted into PBS to 100 μg/ml and incubated for 2 hours at […] lost approximately 50% of its eck binding activity. […] (see FIG. 7).

## CHO-EBP: recombinant EBP purified from supernatants of CHO cells transfected with the EBP gene; mainly EBP^1-150 and EBP^1-159
Eck receptor (p130^eck); LIM 2405 cells after exposure to soluble EBP
  total cellular eck protein levels: modest dose-dependent decrease
Eck receptor (p130^eck); listed as CHO cell-derived rEBP
  eck receptor phosphorylation: stimulated eck receptor phosphorylation
Eck receptor (p130^eck); listed as CHO-derived rEBP
  eck receptor phosphorylation: active in inducing phosphorylation
[1]
  loss of eck binding activity: approximately 50%
